ChEMBL document CHEMBL1201862, “PubChem BioAssay data set” (2004)
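Exposure lasted 48 hours, with cells grown in 96-well plates and compounds tested at five concentrations. The concentration for 50% growth inhibition is given as GI50.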 Active and inactive are the calls of the source. Cut-off read from the data, not from the text of the source: active = GI50 up to about 1.1 µM and inactive = higher.

Key:
Assay in all cases: NCI-60 cell line screen, 48 h
[1] = test system: MOLT-4
[2] = test system: OVCAR-4
[3] = test system: MDA-MB-231
[4] = test system: MDA-MB-435
[5] = test system: NCI-H226
[6] = test system: SK-MEL-5
[7] = test system: 786-0
[8] = test system: NCI-H23
[9] = test system: EKVX
[10] = test system: HCT-15
[11] = test system: SF-295
[12] = test system: TK-10
[13] = test system: HOP-62
[14] = test system: SW-620
[15] = test system: OVCAR-3
[16] = test system: U-251
[17] = test system: SF-539
[18] = test system: T47D
[19] = test system: HT-29
[20] = test system: OVCAR-8
[21] = test system: CAKI-1
[22] = test system: SK-OV-3
[23] = test system: NCI-H522
[24] = test system: SF-268
[25] = test system: HCT-116
[26] = test system: A498
[27] = test system: ACHN
[28] = test system: RXF 393
[29] = test system: NCI/ADR-RES
[30] = test system: COLO 205
[31] = test system: RPMI-8226
[32] = test system: LOX IMVI
[33] = test system: HOP-92
[34] = test system: SNB-75
[35] = test system: Malme-3M
[36] = test system: SN12C
[37] = test system: SK-MEL-28
[38] = test system: KM12
[39] = test system: OVCAR-5
[40] = test system: BT-549
[41] = test system: UACC-257
[42] = test system: SR
[43] = test system: UACC-62
[44] = test system: Hs-578T
[45] = test system: UO-31
[46] = test system: M14
[47] = test system: A549
[48] = test system: CCRF-CEM
[49] = test system: NCI-H460
[50] = test system: IGROV-1
[51] = test system: PC-3
[52] = test system: K562
[53] = test system: MCF7
[54] = test system: DU-145
[55] = test system: MDA-N
[56] = test system: HL-60
[57] = test system: SNB-19
[58] = test system: SK-MEL-2
[59] = test system: HCC 2998

Cc1cc2nc3c(C#N)c(-c4ccccc4)cc(Nc4ccc(F)cc4)n3c2cc1C
GI50 [1]: 17.6 µM (inactive)
GI50 [2]: 53.6 µM (inactive)
GI50 [3]: 15.1 µM (inactive)
GI50 [4]: > 100 µM (inactive)
GI50 [5]: 27.2 µM (inactive)
GI50 [6]: 16 µM (inactive)
GI50 [7]: 8.49 µM (inactive)
GI50 [8]: 13.4 µM (inactive)
GI50 [9]: 14.6 µM (inactive)
GI50 [10]: 9.25 µM
GI50 [11]: 17.6 µM (inactive)
GI50 [12]: 12.4 µM (inactive)
GI50 [13]: 14.4 µM (inactive)
GI50 [14]: 55.5 µM (inactive)
GI50 [15]: 12.2 µM (inactive)
GI50 [16]: 4.33 µM (inactive)
GI50 [17]: 18.6 µM (inactive)
GI50 [18]: > 100 µM (inactive)
GI50 [19]: 28.6 µM (inactive)
GI50 [20]: 10.7 µM (inactive)
GI50 [21]: 29.9 µM (inactive)
GI50 [22]: 16.7 µM (inactive)
GI50 [23]: 4.33 µM (inactive)
GI50 [24]: 10.5 µM (inactive)
GI50 [25]: 13.7 µM (inactive)
GI50 [26]: 22.1 µM (inactive)
GI50 [27]: 16.4 µM (inactive)
GI50 [28]: 14.4 µM (inactive)
GI50 [29]: 8.11 µM (inactive)
GI50 [30]: > 100 µM (inactive)
GI50 [31]: > 100 µM (inactive)
GI50 [32]: 13.4 µM (inactive)
GI50 [33]: 5.01 µM (inactive)
GI50 [34]: 15.9 µM (inactive)
GI50 [35]: 21.5 µM (inactive)
GI50 [36]: 13.9 µM (inactive)
GI50 [37]: 46.2 µM (inactive)
GI50 [38]: 86.7 µM (inactive)
GI50 [39]: 15.6 µM (inactive)
GI50 [40]: 22.6 µM (inactive)
GI50 [41]: 7.5 µM (inactive)

CC1=C/C(=N\N(C)C)C(C(O)(C(F)(F)F)C(F)(F)F)C(C)(C)C1 (stereo not drawn)
GI50 [42]: > 100 µM (inactive)
GI50 [1]: 97.1 µM (inactive)
GI50 [2]: > 100 µM (inactive)
GI50 [3]: > 100 µM (inactive)
GI50 [4]: > 100 µM (inactive)
GI50 [43]: > 100 µM (inactive)
GI50 [44]: 72.4 µM (inactive)
GI50 [5]: > 100 µM (inactive)
GI50 [6]: 80.2 µM (inactive)
GI50 [7]: > 100 µM (inactive)
GI50 [45]: > 100 µM (inactive)
GI50 [46]: > 100 µM (inactive)
GI50 [8]: 69.7 µM (inactive)
GI50 [9]: > 100 µM (inactive)
GI50 [10]: > 100 µM
GI50 [47]: > 100 µM (inactive)
GI50 [11]: > 100 µM (inactive)
GI50 [12]: > 100 µM (inactive)
GI50 [48]: > 100 µM (inactive)
GI50 [13]: > 100 µM (inactive)
GI50 [14]: > 100 µM (inactive)
GI50 [49]: > 100 µM (inactive)
GI50 [15]: 26.4 µM (inactive)
GI50 [16]: > 100 µM (inactive)
GI50 [17]: > 100 µM (inactive)
GI50 [18]: > 100 µM (inactive)
GI50 [50]: > 100 µM (inactive)
GI50 [19]: > 100 µM (inactive)
GI50 [20]: > 100 µM (inactive)
GI50 [21]: > 100 µM (inactive)
GI50 [23]: > 100 µM (inactive)
GI50 [24]: > 100 µM (inactive)
GI50 [25]: > 100 µM (inactive)
GI50 [26]: > 100 µM (inactive)
GI50 [51]: 73.6 µM (inactive)
GI50 [27]: > 100 µM (inactive)
GI50 [52]: > 100 µM (inactive)
GI50 [53]: > 100 µM (inactive)
GI50 [28]: > 100 µM (inactive)
GI50 [29]: > 100 µM (inactive)
GI50 [54]: > 100 µM (inactive)
GI50 [30]: > 100 µM (inactive)
GI50 [31]: 46.8 µM (inactive)
GI50 [32]: > 100 µM (inactive)
GI50 [33]: 0.169 µM (active)
GI50 [34]: 27.1 µM (inactive)
GI50 [35]: 97.1 µM (inactive)
GI50 [36]: > 100 µM (inactive)
GI50 [37]: > 100 µM (inactive)
GI50 [55]: > 100 µM (inactive)
GI50 [56]: > 100 µM (inactive)
GI50 [57]: > 100 µM (inactive)
GI50 [58]: > 100 µM (inactive)
GI50 [38]: > 100 µM (inactive)
GI50 [39]: > 100 µM (inactive)
GI50 [59]: > 100 µM (inactive)
GI50 [41]: > 100 µM (inactive)

COc1ccc([C@@]23OC[C@@H]4[C@@H](OC[C@@H]42)c2cc(OC)c(OC)cc23)cc1OC
GI50 [42]: > 100 µM (inactive)
GI50 [1]: > 100 µM (inactive)
GI50 [2]: > 100 µM (inactive)
GI50 [3]: > 100 µM (inactive)
GI50 [4]: > 100 µM (inactive)
GI50 [43]: > 100 µM (inactive)
GI50 [5]: > 100 µM (inactive)
GI50 [6]: > 100 µM (inactive)
GI50 [7]: > 100 µM (inactive)
GI50 [45]: > 100 µM (inactive)
GI50 [46]: > 100 µM (inactive)
GI50 [8]: > 100 µM (inactive)
GI50 [9]: > 100 µM (inactive)
GI50 [10]: > 100 µM
GI50 [47]: > 100 µM (inactive)
GI50 [11]: > 100 µM (inactive)
GI50 [12]: > 100 µM (inactive)
GI50 [13]: > 100 µM (inactive)
GI50 [14]: > 100 µM (inactive)
GI50 [49]: > 100 µM (inactive)
GI50 [15]: > 100 µM (inactive)
GI50 [16]: > 100 µM (inactive)
GI50 [17]: > 100 µM (inactive)
GI50 [18]: > 100 µM (inactive)
GI50 [50]: > 100 µM (inactive)
GI50 [21]: > 100 µM (inactive)
GI50 [22]: > 100 µM (inactive)
GI50 [23]: > 100 µM (inactive)
GI50 [25]: > 100 µM (inactive)
GI50 [26]: > 100 µM (inactive)
GI50 [51]: > 100 µM (inactive)
GI50 [27]: > 100 µM (inactive)
GI50 [52]: > 100 µM (inactive)
GI50 [53]: > 100 µM (inactive)
GI50 [28]: > 100 µM (inactive)
GI50 [29]: > 100 µM (inactive)
GI50 [54]: > 100 µM (inactive)
GI50 [30]: > 100 µM (inactive)
GI50 [31]: > 100 µM (inactive)
GI50 [32]: > 100 µM (inactive)
GI50 [34]: > 100 µM (inactive)
GI50 [35]: > 100 µM (inactive)
GI50 [37]: > 100 µM (inactive)
GI50 [56]: > 100 µM (inactive)
GI50 [57]: > 100 µM (inactive)
GI50 [58]: > 100 µM (inactive)
GI50 [38]: > 100 µM (inactive)
GI50 [39]: > 100 µM (inactive)
GI50 [59]: > 100 µM (inactive)
GI50 [40]: > 100 µM (inactive)
